From the NIST ThermoML archive (doi:10.1016/j.jct.2008.09.021)
± gives the expanded uncertainty stated by the source.

How the values were obtained:
[1] = refractive index (Na D-line) (dimensionless); conditions: 298.15 K; 101.33 kPa; Liquid; Standard Abbe refractometry
[2] = Liquid; for mass density: 303.15 K, 101.33 kPa, Pycnometric method; for vapor or sublimation pressure: Ebulliometric method (Recirculating still)

SMILES | refractive index [1] | mass density [2] | vapor or sublimation pressure ([2]; 379.35 K) | vapor or sublimation pressure ([2]; 401.85 K) | vapor or sublimation pressure ([2]; 353.95 K) | vapor or sublimation pressure ([2]; 353.85 K) | vapor or sublimation pressure ([2]; 473.25 K) | vapor or sublimation pressure ([2]; 371.05 K)
CC(C)CO [2-methyl-1-propanol] | 1.3939 ± 0.0013 | 794.34 ± 4.6 kg/m3 | 95.3 ± 2 kPa |  |  |  |  | 
CC(C)CCO [3-methylbutan-1-ol] | 1.4053 ± 0.0013 | 801.76 ± 4.7 kg/m3 |  | 95.3 ± 2 kPa |  |  |  | 
CC(C)(C)O [2-methylpropan-2-ol] | 1.3851 ± 0.0013 | 776.16 ± 4.4 kg/m3 |  |  | 95.3 ± 2 kPa |  |  | 
CN1CCCC1=O [N-methylpyrrolidone] | 1.4674 ± 0.0008 | 1023.4 ± 0.61 kg/m3 |  |  |  |  | 95.3 ± 1.9 kPa | 

More lines, now with the values ahead:

refractive index [1] | mass density [2] | vapor or sublimation pressure ([2]; 379.35 K) | vapor or sublimation pressure ([2]; 401.85 K) | vapor or sublimation pressure ([2]; 353.95 K) | vapor or sublimation pressure ([2]; 353.85 K) | vapor or sublimation pressure ([2]; 473.25 K) | vapor or sublimation pressure ([2]; 371.05 K) | SMILES
1.375 ± 0.0013 | 776.88 ± 4.4 kg/m3 |  |  |  | 95.3 ± 2 kPa |  |  | CC(C)O [propan-2-ol]
1.3954 ± 0.0013 | 798.92 ± 4.7 kg/m3 |  |  |  |  |  | 95.3 ± 2 kPa | CCC(C)O (stereo not drawn) [butan-2-ol]
